# Measurements from article PMC10525312, “Identification of a Novel Bioactive Peptide Derived from Frozen Chicken Breast Hydrolysate and the Utilization of Hydrolysates as Biopreservatives” (Biology, 2023).
# Legend:
# [1] = commercial food antioxidants; cited from earlier work
# Description: Free radicals can be produced as a result of lipid oxidation, causing major health issues and having a negative impact on food quality. One of the solutions to prevent lipid oxidation is the use of protein hydrolysates.
# ACE = settings: peptides after in vitro gastrointestinal digestion of chicken meat; read-out: ACE inhibitory activity IC50; cited from earlier work
# Description: The ACE inhibitory activity of C25 was more po ...
# [2] = DPPH antioxidant activity assay (DPPH antioxidant assay kit); assay type: biochemical; settings: 25 °C for 30 min in the dark, absorbance 450 nm
# Method: The antioxidant activity of the chicken hydrolysate and C25 was assessed utilizing a DPPH antioxidant assay kit (Dojindo Laboratories) as described in the instructions provided by the manufacturer and as elaborated by Maky and Zendo [14]. Briefly, 20 µL of the investigated samples was applied to a microtiter plate and 80 µL of assay buffer, 100 µL of ethanol and 100 µL of DPPH working solution were mixed with the samples. Then, the plate was incubated at 25 °C for 30 min in the dark. The absorbance was measured by using a Sunrise microplate absorbance reader (Tecan) at 450 nm.
# [3] = tested on: Weizmannia coagulans JCM 2257^T; assay: MIC, broth microdilution assay, Weizmannia coagulans; assay type: cell-based, Weizmannia (Bacillus) coagulans; settings: C25, Tryptic Soy Broth + 0.6% yeast extract, OD 620 nm, twofold dilutions
# Description: (§1) The following indicator bacteria were used to determine the minimum inhibitory concentrations (MICs) as described by Wiegand et al. and Maky and Zendo [14] by using a broth microdilution assay. Weizmannia (Bacillus) coagulans JCM 2257^T, Salmonella enterica serovar Typhimurium NBRC 13243^T, Listeria innocua ATCC 33090^T, Proteus vulgaris F24B [24] and Escherichia coli JM109 were cultivated in Tryptic Soy Broth (BD, Sparks, MD, USA) supplemented with 0.6% yeast extract. Enterococcus faecalis JCM 5803^T was cultivated in MRS medium (Oxoid, Basingstoke, UK), while Pseudomonas putida ATCC 12633^T was cultivated in Luria Bertani medium (BD). Briefly, the bacterial inhibition was assessed at an optical density at 620 nm using an Infinite F200 Pro microplate reader (Tecan, Männedorf, Switzerland) after the indicator strains were cultured with twofold serial dilutions of chicken hydrolysates and C25.
# [4] = tested on: Enterococcus faecalis JCM 5803^T; assay: MIC, broth microdilution assay, Enterococcus faecalis; assay type: cell-based; settings: C25, MRS medium, OD 620 nm, twofold dilutions
# Description: as §1
# [5] = tested on: Listeria innocua ATCC 33090^T; assay: MIC, broth microdilution assay, Listeria innocua; assay type: cell-based; settings: C25, Tryptic Soy Broth + 0.6% yeast extract, OD 620 nm, twofold dilutions
# Description: as §1
# [6] = tested on: Pseudomonas putida ATCC 12633^T; assay: MIC, broth microdilution assay, Pseudomonas putida; assay type: cell-based; settings: C25, Luria Bertani medium, OD 620 nm, twofold dilutions
# Description: as §1
# [7] = tested on: Salmonella enterica serovar Typhimurium NBRC 13245^T; assay: MIC, broth microdilution assay, Salmonella Typhimurium; assay type: cell-based; settings: C25, Tryptic Soy Broth + 0.6% yeast extract, OD 620 nm, twofold dilutions
# Description: as §1
compound,measurement,setting,value
"Cc1cc(C(C)(C)C)c(O)c(C(C)(C)C)c1 [butylated hydroxytoluene (BHT), butylated hydroxytoluene]",Antioxidant activity IC50,[1],202.35 µg/mL
KPLL,IC50,ACE,12 µM
H-IHAEEILDIRGNPTVEVDLHTAKGH-OH [C25],Antioxidant activity (in words),[2],no activity was observed
same,MIC (class symbol),[3],NA ^2 (NA ^2 > 24 μg/mL)
same,MIC (class symbol),[4],NA ^2 (NA ^2 > 24 μg/mL)
same,MIC (class symbol),[5],NA ^2 (NA ^2 > 24 μg/mL)
same,MIC (class symbol),[6],NA ^2 (NA ^2 > 24 μg/mL)
same,MIC (class symbol),[7],NA ^2 (NA ^2 > 24 μg/mL)
"COc1ccc(O)c(C(C)(C)C)c1 [Butylated hydroxyanisole (BHA), Butylated hydroxyanisole]",Antioxidant activity IC50,[1],112.05 µg/mL
ELFTT,IC50,ACE,6.35 µM
